Patent publication US10857245B2, “Diagnostic imaging agent for early bone metastasis from cancer” (NIHON MEDI-PHYSICS CO., LTD., priority 2015, dated 2020)

What was measured:
[1] = system: bone metastasis from rat breast cancer cell line MRMT-1; test: Autoradiography in rat model of osteolytic bone metastasis from breast cancer; type: in vivo; conditions: limb transplanted with MRMT-1 (right hind limb), day 12 to 14 after transplantation; tail vein; sacrifice after 30 minutes (^99mTc-HMDP 2 hours)
Method: A rat breast cancer cell line MRMT-1 was obtained from RIKEN BioResource Center. MRMT-1 was subcultured using a medium RPMI1640 (manufactured by Life Technologies Japan Ltd.) with 10% fetal bovine serum (American Type Culture Collection), 100 U/mL penicillin (manufactured by Life Technologies Japan Ltd.), and 0.1 mg/mL streptomycin (manufactured by Life Technologies Japan Ltd). On the day of transplantation, the medium in a culture vessel was removed and Trypsin-EDTA solution (manufactured by Life Technologies Japan Ltd.) maintained at 37° C. was added to the culture vessel, which was left to stand at 37° C. for about 5 minutes. After MRMT-1 was detached from the surface of the culture vessel, the above-mentioned medium was added to the culture vessel in an amount equal to that of Trypsin-EDTA solution. MRMT-1 was precipitated by centrifugation (800 rpm, 5 min) and its supernatant was removed, and a cell suspension in which MRMT-1 was suspended in Hank's buffer (manufactured by Life Technologies Japan Ltd.) at a concentration of 2.5×10^5 cells/mL was then produced.
An anti-inflammatory analgesic, Metacam 0.5% Solution for Injection (manufactured by Boehringer Ingelheim Vetmedica Japan Co., Ltd.) was subcutaneously injected into the groin of the right hind limb of 9-week-old male SD rat (Japan SLC, Inc.) at a rate of 0.2 mg/kg under isoflurane (manufactured by Mylan) anesthesia, and the skin in the groin was then incised. Next, the saphenous artery, the saphenous vein and the nerve parallel thereto were removed from muscles and isolated, and a surgical suture (3-0) was passed under the saphenous artery in the portion distal to the popliteal artery bifurcation. In addition, tissues around the superficial epigastric artery bifurcation were removed and a surgical suture (3-0) was passed under the femoral artery between the superficial epigastric artery bifurcation and the popliteal artery bifurcation (the portion slightly distal to the superficial epigastric artery bifurcation). Subsequently, a few drops of Papaverine Hydrochloride Injection 40 mg (manufactured by Nichi-Iko Pharmaceutical Co., Ltd.) was added dropwise around the saphenous artery to relax vascular smooth muscle, and each end of the surgical suture passed under the saphenous artery and the femoral artery was picked up with forceps, and the saphenous artery and the femoral artery were lifted to compress the arteries. A cotton swab was put under the saphenous artery to retain the saphenous artery, and an injection needle was inserted from the distal portion of the saphenous artery in the central direction, and MRMT-1 suspension (0.1 mL) was slowly injected. […]

[2] = system: bone metastasis from breast cancer cells (MRMT-1); test: Triple tracer autoradiography in rat models of intertrabecular and osteolytic bone metastasis from breast cancer; type: in vivo; conditions: intertrabecular model day 6 and day 8, osteolytic model day 11 after transplantation; three tracers in an identical rat
Method: MRMT-1 suspension was prepared in the same way as the MRMT-1 suspension prepared in Example 1.
A model of intertrabecular bone metastasis was prepared in the same way as the rat model of osteolytic bone metastasis prepared in Example 1 except that a MRMT-1 suspension was injected into right and left saphenous arteries of the 12-week old male SD rat (Japan SLC, Inc.), which was used for the following experiment at day 6 or day 8 after the transplantation. The lesion appeared only in right hind limb of the model at day 6 after the transplantation and left limb of the model at day 8 after the transplantation.
A model of osteolytic bone metastasis was prepared in the same way as the rat model of osteolytic bone metastasis prepared in Example 1 except that the model was produced from 12-week old male SD rat (Japan SLC, Inc.), and used for the following experiment at day 11 after the transplantation. […]

[3] = system: bone metastasis from prostate cancer; test: PET/CT imaging of patient with prostate cancer, compared with bone scintigraphy and whole body contrast enhanced CT; conditions: untreated patient with prostate cancer; 263.1 MBq intravenously; whole body PET finished by 30 minutes
[4] = system: bone metastasis from breast cancer; conditions: human, in vivo; cited from earlier work

Row | Compound | accumulation in bone metastasis in the osteolytic lesion area (autoradiogram, arrow A) [1] | accumulation in bone metastasis prior to the formation of osteolytic lesion, not detectable in X-ray image (autoradiogram, arrow B) [1] | accumulation in the early focal site of bone metastasis (autoradiogram) [2] | visualization of lesions which were not visualized on bone scintigraphy and whole body contrast enhanced CT [3] | combined sensitivity of all sites [4] [%] | detection rate of osteoblastic bone metastasis [4] [%] | detection rate of osteolytic bone metastasis [4] [%]
1 | N[14C]1(C(=O)O)CC(F)C1 (stereo not drawn) [^14C-fluciclovine, trans-1-amino-3-fluorocyclobutane-1-[^14C]carboxylic acid] | accumulated | also accumulated | accumulated |  |  |  | 
2 | N[C@]1(C(=O)O)C[C@@H](F)C1 [^18F-fluciclovine, trans-1-amino-[^18F]fluorocyclobutanecarboxylic acid] |  |  |  | visualized |  |  | 
3 | technetium[^99mTc]hydroxymethylene diphosphonate [^99mTc-HMDP] | observed in neither | observed in neither | no accumulation |  | 78.2 | 100 | 70.0
